{"source": "patent US20060251714A1", "about": "“Pharmaceutical formulations of amyloid inhibiting compounds” (priority 2005, published 2006)", "key": {"[1]": {"test": "Example 7 Part I: single rising oral doses of NC-758, plasma pharmacokinetics in healthy young and elderly male volunteers", "assay_type": "in vivo, human", "settings": "for AUC∞: mean, only subjects with estimable elimination rate constant", "source_text": "(§1) In the following examples and elsewhere herein, terms are as defined below. The pharmacokinetic parameters were derived by non-compartmental analysis using WinNonlin® (Pharsight Corporation, Mountain View, Calif.) or SAS® for Windows® (SAS Institute Inc., Cary, N.C.).\nCmax —the maximum observed plasma concentration.\nTmax—the time of occurrence of Cmax.\nAUC0-t—the area under the plasma concentration versus time curve from time zero to the last sampling time at which concentrations were at or above the limit of quantification, calculated by the linear trapezoidal rule.\nAUC∞—the area under the plasma concentrations versus time curve from time zero to infinity, calculated from AUC0-t+(Clast/λz), where Clast is the last observed quantifiable concentration and λz is the apparent terminal rate constant.\nt1/2—the apparent terminal half-life, calculated from Ln2/λz.\nPart I—The pharmacokinetic profile and the effect of food on single rising oral doses of 3-APS free acid, (modified-release enteric-coated tablet, as described in Table 3 above, hereinafter “NC-758”) in healthy male young (18-45 years) volunteers is determined. For doses at multiples of 100 mg, multiple 100 mg tables are administered. The pharmacokinetics of a single oral dose of NC-758 is also determined in a group of healthy male elderly (≧55 years old) volunteers. The test is a randomized, double-blind, placebo-controlled study to assess the pharmacokinetic profile of 4 single rising oral doses of NC-758 in healthy young (18-45 years) male subjects. Blood samples are collected during 24 h following dosing. Plasma concentrations of 3-APS are determined using a validated LC-MS/MS method."}, "[2]": {"test": "Example 12: 3-APS concentration in cerebrospinal fluid of CAA patients", "assay_type": "in vivo", "settings": "human, oral, 5 hours post-dose on Week 12, range of means, CSF samples from five patients, some below lower limit of quantitation, read-out: mean concentrations of 3-APS in the cerebrospinal fluid (CSF)", "protocol": "A total of 24 patients who have had lobar cerebral hemorrhage are randomized to receive in a 1:1:1 ratio 3-APS 50, 100 or 150 mg BID for 12 weeks. A lumbar puncture is performed on an optional basis at Weeks 0 and 12 to assess the pharmacological effect of 3-APS on Aβ40, Aβ42 and tau concentrations in cerebrospinal fluid (CSF) and to measure the drug concentration in the CSF. Rating instruments (NIHSS, Barthel Index, ADAS-cog and EXIT25) are administered at Weeks 0 and 12 to evaluate the neurological and cognitive functions as well as the daily functioning.\nFor pharmacokinetic investigations, blood samples are collected from each patient prior to dosing and at specified time points through 12 h post-dose after the first dose (Week 0) and the last dose (Week 12). Blood samples are also collected prior to the first dose of the day during Week 2, 4 and 8 visits. CSF samples are obtained by lumbar puncture prior to dosing on Week 0 and approximately 5 hours post-dose on Week 12.\nThe mean concentrations of 3-APS in the cerebrospinal fluid (CSF) 5 hours post-dose on Week 12 range from 3.28 to 4.10 ng/mL confirming that the central nervous system is exposed to the drug."}, "[3]": {"test": "Example 7 Part II: food effect, single oral 200 mg 3-APS in young male subjects, plasma pharmacokinetics", "assay_type": "in vivo, human", "settings": "single oral 200 mg (Table 3 formulation); for Cmax: male, po, 200 mg", "protocol": "as §1\nFollowing single oral dosing of 200 mg 3-APS (modified-release coated formulation as described in Table 3 above) to young male subjects (aged between 18 and 45 years) under fasted and fed (high fat) conditions, maximum plasma concentrations of 3-APS are attained […] post-dose under fasted and fed conditions, respectively (Table 9A)."}, "[4]": {"settings": "dog, in vivo", "protocol": "Furthermore, the non-hygroscopic nature of the acid form makes it desirable as active pharmaceutical ingredient. To further protect against any possible gastrointestinal intolerance that could result from the acid form, the tablets are enteric-coated and a modified-release agent is added to control any rapid release of the drug in the stomach and the intestine, respectively."}, "CSF Aβ42": {"tested_on": "CSF Aβ42", "test": "Example 11: additional tests, CSF Aβ42 level and Aβ42/Aβ40 ratio in treated patients", "assay_type": "in vivo, human", "protocol": "FIG. 1 Change from Baseline CSF Aβ42 versus 3-APS doses\nFIG. 2 Effect of 3-APS on CSF Aβ42/40 Ratio in Mild-to-Moderate AD Patients—Placebo vs. 150 mg BID\nFIG. 3 Effect of 3-APS on CSF Aβ42/40 Ratio in Mild-to-Moderate AD Patients 0 and 50 mg 3-APS\nFIG. 4 Effect of 3-APS on CSF Aβ42/40 Ratio in Mild-to-Moderate AD Patients 100 and 150 mg 3-APS"}, "[5]": {"settings": "200 mg dose, see Tables 9 and 10"}, "[6]": {"settings": "single oral 100 mg NC-758 (Table 3 tablet), young (18-45 years) male subjects, fasted, n = 5, mean"}, "[7]": {"settings": "single oral 200 mg NC-758 (Table 3 tablet), elderly (>55 years) male subjects, fasted, n = 6, mean"}, "[8]": {"settings": "single oral 200 mg NC-758 (Table 3 tablet), young (18-45 years) male subjects, fasted, n = 6, mean"}, "[9]": {"settings": "single oral 300 mg NC-758 (Table 3 tablet), young (18-45 years) male subjects, fasted, n = 5, mean"}, "[10]": {"settings": "single oral 400 mg NC-758 (Table 3 tablet), young (18-45 years) male subjects, fasted, n = 3, mean"}}, "data": [{"smiles": "NCCCS(=O)(=O)O", "note": "[3-APS, 3-amino-1-propanesulfonic acid]", "values": [{"measurement": "AUC0-t greater in elderly subjects compared to young subjects", "setting": "[1]; [5]", "value": "approximately 70%"}, {"measurement": "Cmax greater in elderly subjects compared to young subjects", "setting": "[1]; [5]", "value": "approximately 70%"}, {"measurement": "AUC∞", "setting": "[1]; single oral 100 mg NC-758 (Table 3 tablet), young (18-45 years) male subjects, fasted", "value": 1421, "unit": "ng·h/mL"}, {"measurement": "AUC0-Tlast", "setting": "[1]; [6]", "value": 1392, "unit": "ng·h/mL"}, {"measurement": "Cmax", "setting": "[1]; [6]", "value": 410, "unit": "ng/mL"}, {"measurement": "AUC0-Tlast", "setting": "[1]; [7]", "value": 4882, "unit": "ng·h/mL"}, {"measurement": "Cmax", "setting": "[1]; [7]", "value": 1094, "unit": "ng/mL"}, {"measurement": "AUC∞", "setting": "[1]; single oral 200 mg NC-758 (Table 3 tablet), young (18-45 years) male subjects, fasted", "value": 2492, "unit": "ng·h/mL"}, {"measurement": "AUC0-Tlast", "setting": "[1]; [8]", "value": 2898, "unit": "ng·h/mL"}, {"measurement": "Cmax", "setting": "[1]; [8]", "value": 661, "unit": "ng/mL"}, {"measurement": "AUC∞", "setting": "[1]; single oral 300 mg NC-758 (Table 3 tablet), young (18-45 years) male subjects, fasted", "value": 4464, "unit": "ng·h/mL"}, {"measurement": "AUC0-Tlast", "setting": "[1]; [9]", "value": 3999, "unit": "ng·h/mL"}, {"measurement": "Cmax", "setting": "[1]; [9]", "value": 904, "unit": "ng/mL"}, {"measurement": "AUC0-Tlast", "setting": "[1]; [10]", "value": 15966, "unit": "ng·h/mL"}, {"measurement": "Cmax", "setting": "[1]; [10]", "value": 5367, "unit": "ng/mL"}, {"measurement": "Tmax", "setting": "[1]; single oral 400 mg NC-758 (Table 3 tablet), young (18-45 years) male subjects, fasted, n = 3, median", "value": 2, "unit": "h"}, {"measurement": "concentration at 5 h", "setting": "[2]", "value": "3.28 to 4.1", "unit": "ng/mL"}, {"measurement": "AUC(0-inf)", "setting": "[3]; human, plasma, Fasting Arm, mean, only subjects with estimable elimination rate constant", "value": 2400, "unit": "ng·h/mL"}, {"measurement": "AUC(0-t)", "setting": "[3]; human, plasma, Fed Arm (high fat), n = 8, mean, read-out: AUC0-Tlast", "value": 3870, "unit": "ng·h/mL"}, {"measurement": "Tmax", "setting": "[3]; human, plasma, Fed Arm (high fat), n = 8, median", "value": 13.5, "unit": "h"}, {"measurement": "Cmax", "setting": "[3]; human, plasma, Fasting Arm, n = 8, mean", "value": 594, "unit": "ng/mL"}, {"measurement": "Cmax", "setting": "[3]; human, plasma, Fed Arm (high fat), n = 8, mean", "value": 631, "unit": "ng/mL"}, {"measurement": "AUC0-Tlast", "setting": "[3]; Fasting Arm, n = 8, mean", "value": 2196, "unit": "ng·h/mL"}, {"measurement": "AUC∞", "setting": "[3]; Fed Arm (high fat), mean, only subjects with estimable elimination rate constant", "value": 4497, "unit": "ng·h/mL"}, {"measurement": "tolerability", "setting": "[4]", "value": "better tolerated than the sodium salt form"}, {"measurement": "CSF Aβ42 levels", "setting": "CSF Aβ42; treated AD patients, FIG. 1", "value": "reduced CSF Aβ42 levels"}, {"measurement": "ratio of Aβ42/Aβ40 (CSF)", "setting": "CSF Aβ42; treated mild-to-moderate AD patients, FIGS. 2, 3 and 4", "value": "reduced the ratio of Aβ42/Aβ40"}]}]}
